Source: patent publication US11034725B2, “Compositions and methods for treating cardiovascular disease” (Genentech, Inc., priority 2016, dated 2021)
Square brackets hold non-standard residues; d marks the D form. Peptide text beside a SMILES is read from it. * marks the point of attachment. Propanoyl(3-indol-3-yl) = O=C(CCc1c[nH]c2ccccc12)*; Propanoyl(3-(4-Cl-Ph)) = O=C(CCc1ccc(Cl)cc1)*; Propanoyl(3-(3-pyridyl)) = O=C(CCc1cccnc1)*; Butanoyl(4-OPh) = O=C(CCCOc1ccccc1)*; Propanoyl(3-cHex) = O=C(CCC1CCCCC1)*; X20 = O=C(c1cc(-c2ccncc2)n[nH]1)*; hArg = N=C(N)NCCCC[C@H](N)C(=O)O; X13 = O=C(CCN1CCS(=O)(=O)CC1)*; X28 = COc1cc(OCCCC(=O)*)ccc1CO; X34 = NC(=O)N1CCN(CCC(=O)*)CC1; X37 = Cc1ccc(C(=O)CCC(=O)*)cc1; X22 = O=C(C1CC(Cc2ccccc2)C1)*; X6 = O=C(Cn1ccc(=O)[nH]c1=O)*; X8 = O=C(c1ccc(N2CCOCC2)nc1)*; X11 = O=C(CCCOc1ccc(Br)cc1)*; X7 = CCc1ccc(OCCCC(=O)*)cc1; X10 = Nc1cccc(CCC(=O)*)c1; X4 = Cc1ccc(OCCC(=O)*)cc1; Pentanoyl = CCCCC(=O)*; X2 = CC(C)(C)CCCC(=O)*; X32 = O=C(CCN1CCOCC1)*; X41 = O=C(CCn1cncn1)*

Assays:
PCSK9Δhelix = molecular target: T1, PCSK9Δhelix (Homo sapiens, UniProt Q8NBP7); assay: PCSK9Δhelix/Ab20 TR-FRET binding assay; conditions: TR-FRET; Table 8E, additional compounds; read-out: PCSK9Δhelix/Ab20 IC50
T1 construct: Human PCSK9 construct M1-Q692 with an engineered TEV site (residue deletion Y166, R167); made in house; host or cells: CHO

PCSK9 = PCSK9 (Homo sapiens, UniProt Q8NBP7); assay: PCSK9/EGF(A) TR-FRET binding assay; conditions: TR-FRET; Table 8E, additional compounds; read-out: PCSK9/EGF(A) IC50
Chain of PCSK9 (Q8NBP7 153-692): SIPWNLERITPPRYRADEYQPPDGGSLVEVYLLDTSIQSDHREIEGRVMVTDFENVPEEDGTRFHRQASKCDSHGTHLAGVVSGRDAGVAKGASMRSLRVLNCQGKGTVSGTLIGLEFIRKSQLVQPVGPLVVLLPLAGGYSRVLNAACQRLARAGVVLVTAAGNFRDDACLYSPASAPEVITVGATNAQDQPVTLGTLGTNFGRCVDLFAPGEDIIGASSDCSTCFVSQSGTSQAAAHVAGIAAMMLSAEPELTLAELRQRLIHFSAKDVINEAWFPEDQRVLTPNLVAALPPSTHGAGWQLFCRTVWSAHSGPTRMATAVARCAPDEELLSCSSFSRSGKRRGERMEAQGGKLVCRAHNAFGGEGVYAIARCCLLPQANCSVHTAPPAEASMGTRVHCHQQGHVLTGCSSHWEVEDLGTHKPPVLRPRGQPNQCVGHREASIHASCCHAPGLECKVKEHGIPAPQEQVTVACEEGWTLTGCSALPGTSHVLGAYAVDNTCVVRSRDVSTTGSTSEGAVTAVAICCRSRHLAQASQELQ
Chain of PCSK9 (Q8NBP7 31-152 partner limits assumed): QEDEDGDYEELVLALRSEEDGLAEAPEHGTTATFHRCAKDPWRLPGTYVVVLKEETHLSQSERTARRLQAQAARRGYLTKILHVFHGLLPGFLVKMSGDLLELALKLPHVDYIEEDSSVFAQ

T1 sequence (Q8NBP7 with tags, fused parts or gaps limits assumed): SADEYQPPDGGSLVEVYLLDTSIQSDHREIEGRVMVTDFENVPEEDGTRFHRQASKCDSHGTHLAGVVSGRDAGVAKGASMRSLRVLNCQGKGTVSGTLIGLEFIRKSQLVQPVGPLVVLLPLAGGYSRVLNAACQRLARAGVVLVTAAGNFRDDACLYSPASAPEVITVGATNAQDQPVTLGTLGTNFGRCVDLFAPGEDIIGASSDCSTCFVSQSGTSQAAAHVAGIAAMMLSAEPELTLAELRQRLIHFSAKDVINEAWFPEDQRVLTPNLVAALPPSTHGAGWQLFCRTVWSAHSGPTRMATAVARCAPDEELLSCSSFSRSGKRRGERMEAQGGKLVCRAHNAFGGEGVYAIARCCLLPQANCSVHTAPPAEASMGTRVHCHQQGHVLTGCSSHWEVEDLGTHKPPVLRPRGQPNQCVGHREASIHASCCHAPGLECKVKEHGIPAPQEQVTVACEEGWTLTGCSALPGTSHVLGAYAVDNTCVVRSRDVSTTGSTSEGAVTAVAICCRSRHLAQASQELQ
T1 sequence (Q8NBP7 31-152 partner limits assumed): as the sequence (Q8NBP7 31-152 partner limits assumed) above

Row | SMILES | IC50 (PCSK9Δhelix) | IC50 (PCSK9)
1 | CC[C@H](C)[C@H](NC(=O)[C@H](CCCCNC(=N)N)NC(=O)[C@@H](NC(=O)[C@H](CC(C)C)NC(=O)[C@H](CC(N)=O)NC(=O)[C@H](Cc1c[nH]c2ccccc12)NC(=O)CCOc1ccc(C)cc1)C(C)C)C(=O)NCC(=O)N[C@@H](CC(C)C)C(=O)N[C@@H](CC(C)C)C(=O)N[C@@H](CCCNC(=N)N)C(N)=O [Compound 211] (X4-WNLV[hArg]IGLLR-NH2) | 3.8 µM | 14 µM
2 | CC[C@H](C)[C@H](NC(=O)[C@H](CCCNC(=N)N)NC(=O)[C@@H](NC(=O)[C@H](CC(C)C)NC(=O)[C@H](CC(N)=O)NC(=O)[C@H](Cc1c[nH]c2ccccc12)NC(=O)CCN1CCS(=O)(=O)CC1)C(C)C)C(=O)NCC(=O)N[C@@H](CC(C)C)C(=O)N[C@@H](CC(C)C)C(=O)N[C@@H](CCCNC(=N)N)C(N)=O [Compound 126] (X13-WNLVRIGLLR-NH2) | 19 µM | ≥ 50 µM
3 | CC[C@H](C)[C@H](NC(=O)[C@H](CCCNC(=N)N)NC(=O)[C@@H](NC(=O)[C@H](CC(C)C)NC(=O)[C@H](CC(N)=O)NC(=O)[C@H](Cc1c[nH]c2ccccc12)NC(=O)CCn1cncn1)C(C)C)C(=O)NCC(=O)N[C@@H](CC(C)C)C(=O)N[C@@H](CC(C)C)C(=O)N[C@@H](CCCNC(=N)N)C(N)=O [Compound 142] (X41-WNLVRIGLLR-NH2) | 15 µM | ≥ 50 µM
4 | CC[C@H](C)[C@H](NC(=O)[C@H](CCCNC(=N)N)NC(=O)[C@@H](NC(=O)[C@H](CC(C)C)NC(=O)[C@H](CC(N)=O)NC(=O)[C@H](Cc1c[nH]c2ccccc12)NC(=O)CCN1CCOCC1)C(C)C)C(=O)NCC(=O)N[C@@H](CC(C)C)C(=O)N[C@@H](CC(C)C)C(=O)N[C@@H](CCCNC(=N)N)C(N)=O [Compound 137] (X32-WNLVRIGLLR-NH2) | 6.7 µM | ≥ 50 µM
5 | CC[C@H](C)[C@H](NC(=O)[C@H](CCCCNC(=N)N)NC(=O)[C@@H](NC(=O)[C@H](CC(C)C)NC(=O)[C@H](CC(N)=O)NC(=O)[C@H](Cc1c[nH]c2ccccc12)NC(=O)[C@H](N)Cc1ccc(O)cc1)C(C)C)C(=O)NCC(=O)N[C@@H](CC(C)C)C(=O)N[C@@H](CC(C)C)C(=O)N[C@@H](CCCNC(=N)N)C(N)=O [Compound 223] (H-[dY]WNLV[hArg]IGLLR-NH2) | 1.4 µM | 21 µM
6 | CC[C@H](C)[C@H](NC(=O)[C@H](CCCNC(=N)N)NC(=O)[C@@H](NC(=O)[C@H](CC(C)C)NC(=O)[C@H](CC(N)=O)NC(=O)[C@H](Cc1c[nH]c2ccccc12)NC(=O)c1ccc(N2CCOCC2)nc1)C(C)C)C(=O)NCC(=O)N[C@@H](CC(C)C)C(=O)N[C@H](C(=O)N[C@@H](CCCNC(=N)N)C(N)=O)[C@@H](C)O [Compound 172] (X8-WNLVRIGLTR-NH2) | 8.5 µM | ≥ 50 µM
7 | CC[C@H](C)[C@H](NC(=O)[C@H](CCCCNC(=N)N)NC(=O)[C@@H](NC(=O)[C@H](CC(C)C)NC(=O)[C@H](CC(N)=O)NC(=O)[C@H](Cc1c[nH]c2ccccc12)NC(=O)CCc1ccc(Cl)cc1)C(C)C)C(=O)NCC(=O)N[C@@H](CC(C)C)C(=O)N[C@@H](CC(C)C)C(=O)N[C@@H](CCCNC(=N)N)C(N)=O [Compound 199] ({Propanoyl(3-(4-Cl-Ph))}-WNLV[hArg]IGLLR-NH2) | 0.2 µM | 0.98 µM
8 | CC[C@H](C)[C@H](NC(=O)[C@H](CCCNC(=N)N)NC(=O)[C@@H](NC(=O)[C@H](CC(C)C)NC(=O)[C@H](CC(N)=O)NC(=O)[C@H](Cc1c[nH]c2ccccc12)NC(=O)CCc1c[nH]c2ccccc12)C(C)C)C(=O)NCC(=O)N[C@@H](CC(C)C)C(=O)N[C@H](C(=O)N[C@@H](CCCNC(=N)N)C(N)=O)[C@@H](C)O [Compound 189] ({Propanoyl(3-indol-3-yl)}-WNLVRIGLTR-NH2) | 12 µM | 38 µM
9 | CC[C@H](C)[C@H](NC(=O)[C@H](CCCNC(=N)N)NC(=O)[C@@H](NC(=O)[C@H](CC(C)C)NC(=O)[C@H](CC(N)=O)NC(=O)[C@H](Cc1c[nH]c2ccccc12)NC(=O)C1CC(Cc2ccccc2)C1)C(C)C)C(=O)NCC(=O)N[C@@H](CC(C)C)C(=O)N[C@@H](CC(C)C)C(=O)N[C@@H](CCCNC(=N)N)C(N)=O (some centres unmarked) [Compound 144] (X22-WNLVRIGLLR-NH2) | 4 µM | 9.7 µM
10 | CC[C@H](C)[C@H](NC(=O)[C@H](CCCCNC(=N)N)NC(=O)[C@@H](NC(=O)[C@H](CC(C)C)NC(=O)[C@H](CC(N)=O)NC(=O)[C@H](Cc1c[nH]c2ccccc12)NC(=O)CCCOc1ccc(CO)c(OC)c1)C(C)C)C(=O)NCC(=O)N[C@@H](CC(C)C)C(=O)N[C@@H](CC(C)C)C(=O)N[C@@H](CCCNC(=N)N)C(N)=O [Compound 204] (X28-WNLV[hArg]IGLLR-NH2) | 0.87 µM | 3.6 µM
11 | CC[C@H](C)[C@H](NC(=O)[C@H](CCCNC(=N)N)NC(=O)[C@@H](NC(=O)[C@H](CC(C)C)NC(=O)[C@H](CC(N)=O)NC(=O)[C@H](Cc1c[nH]c2ccccc12)NC(=O)CCC1CCCCC1)C(C)C)C(=O)NCC(=O)N[C@@H](CC(C)C)C(=O)N[C@@H](CC(C)C)C(=O)N[C@@H](CCCNC(=N)N)C(N)=O [Compound 151] ({Propanoyl(3-cHex)}-WNLVRIGLLR-NH2) | 2.5 µM | 6.9 µM
12 | CC[C@H](C)[C@H](NC(=O)[C@H](CCCNC(=N)N)NC(=O)[C@@H](NC(=O)[C@H](CC(C)C)NC(=O)[C@H](CC(N)=O)NC(=O)[C@H](Cc1c[nH]c2ccccc12)NC(=O)CCN1CCN(C(N)=O)CC1)C(C)C)C(=O)NCC(=O)N[C@@H](CC(C)C)C(=O)N[C@@H](CC(C)C)C(=O)N[C@@H](CCCNC(=N)N)C(N)=O [Compound 131] (X34-WNLVRIGLLR-NH2) | 6.7 µM | ≥ 50 µM
13 | CCc1ccc(OCCCC(=O)N[C@@H](Cc2c[nH]c3ccccc23)C(=O)N[C@@H](CC(N)=O)C(=O)N[C@@H](CC(C)C)C(=O)N[C@H](C(=O)N[C@@H](CCCCNC(=N)N)C(=O)N[C@H](C(=O)NCC(=O)N[C@@H](CC(C)C)C(=O)N[C@@H](CC(C)C)C(=O)N[C@@H](CCCNC(=N)N)C(N)=O)[C@@H](C)CC)C(C)C)cc1 [Compound 210] (X7-WNLV[hArg]IGLLR-NH2) | 0.84 µM | 3 µM
14 | CC[C@H](C)[C@H](NC(=O)[C@H](CCCNC(=N)N)NC(=O)[C@@H](NC(=O)[C@H](CC(C)C)NC(=O)[C@H](CC(N)=O)NC(=O)[C@H](Cc1c[nH]c2ccccc12)NC(=O)Cn1ccc(=O)[nH]c1=O)C(C)C)C(=O)NCC(=O)N[C@@H](CC(C)C)C(=O)N[C@@H](CC(C)C)C(=O)N[C@@H](CCCNC(=N)N)C(N)=O [Compound 143] (X6-WNLVRIGLLR-NH2) | 23 µM | ≥ 50 µM
15 | CCCCC(=O)N[C@@H](Cc1c[nH]c2ccccc12)C(=O)N[C@@H](CC(N)=O)C(=O)N[C@@H](CC(C)C)C(=O)N[C@H](C(=O)N[C@@H](CCCNC(=N)N)C(=O)N[C@H](C(=O)NCC(=O)N[C@@H](CC(C)C)C(=O)N[C@@H](CO)C(=O)N[C@@H](CCCNC(=N)N)C(N)=O)[C@@H](C)CC)C(C)C [Compound 181] (Pentanoyl-WNLVRIGLSR-NH2) | 8.9 µM | ≥ 50 µM
16 | CC[C@H](C)[C@H](NC(=O)[C@H](CCCNC(=N)N)NC(=O)[C@@H](NC(=O)[C@H](CC(C)C)NC(=O)[C@H](CC(N)=O)NC(=O)[C@H](Cc1c[nH]c2ccccc12)NC(=O)CCc1cccc(N)c1)C(C)C)C(=O)NCC(=O)N[C@@H](CC(C)C)C(=O)N[C@H](C(=O)N[C@@H](CCCNC(=N)N)C(N)=O)[C@@H](C)O [Compound 164] (X10-WNLVRIGLTR-NH2) | 12 µM | ≥ 50 µM
17 | CC[C@H](C)[C@H](NC(=O)[C@H](CCCNC(=N)N)NC(=O)[C@@H](NC(=O)[C@H](CC(C)C)NC(=O)[C@H](CC(N)=O)NC(=O)[C@H](Cc1c[nH]c2ccccc12)NC(=O)CCCOc1ccc(Br)cc1)C(C)C)C(=O)NCC(=O)N[C@@H](CC(C)C)C(=O)N[C@H](C(=O)N[C@@H](CCCNC(=N)N)C(N)=O)[C@@H](C)O [Compound 182] (X11-WNLVRIGLTR-NH2) | 4 µM | 14 µM
18 | CC[C@H](C)[C@H](NC(=O)[C@H](CCCNC(=N)N)NC(=O)[C@@H](NC(=O)[C@H](CC(C)C)NC(=O)[C@H](CC(N)=O)NC(=O)[C@H](Cc1c[nH]c2ccccc12)NC(=O)c1cc(-c2ccncc2)n[nH]1)C(C)C)C(=O)NCC(=O)N[C@@H](CC(C)C)C(=O)N[C@H](C(=O)N[C@@H](CCCNC(=N)N)C(N)=O)[C@@H](C)O [Compound 188] (X20-WNLVRIGLTR-NH2) | 7.6 µM | 22 µM
19 | CC[C@H](C)[C@H](NC(=O)[C@H](CCCCNC(=N)N)NC(=O)[C@@H](NC(=O)[C@H](CC(C)C)NC(=O)[C@H](CC(N)=O)NC(=O)[C@H](Cc1c[nH]c2ccccc12)NC(=O)CCCOc1ccccc1)C(C)C)C(=O)NCC(=O)N[C@@H](CC(C)C)C(=O)N[C@@H](CC(C)C)C(=O)N[C@@H](CCCNC(=N)N)C(N)=O [Compound 209] ({Butanoyl(4-OPh)}-WNLV[hArg]IGLLR-NH2) | 0.45 µM | 2.9 µM
20 | CC[C@H](C)[C@H](NC(=O)[C@H](CCCNC(=N)N)NC(=O)[C@@H](NC(=O)[C@H](CC(C)C)NC(=O)[C@H](CC(N)=O)NC(=O)[C@H](Cc1c[nH]c2ccccc12)NC(=O)CCCC(C)(C)C)C(C)C)C(=O)NCC(=O)N[C@@H](CC(C)C)C(=O)N[C@@H](CC(C)C)C(=O)N[C@@H](CCCNC(=N)N)C(N)=O [Compound 148] (X2-WNLVRIGLLR-NH2) | 11 µM | 19 µM
21 | CC[C@H](C)[C@H](NC(=O)[C@H](CCCNC(=N)N)NC(=O)[C@@H](NC(=O)[C@H](CC(C)C)NC(=O)[C@H](CC(N)=O)NC(=O)[C@H](Cc1c[nH]c2ccccc12)NC(=O)CCc1cccnc1)C(C)C)C(=O)NCC(=O)N[C@@H](CC(C)C)C(=O)N[C@@H](CC(C)C)C(=O)N[C@@H](CCCNC(=N)N)C(N)=O [Compound 138] ({Propanoyl(3-(3-pyridyl))}-WNLVRIGLLR-NH2) | 4.9 µM | 48 µM
22 | CC[C@H](C)[C@H](NC(=O)[C@H](CCCNC(=N)N)NC(=O)[C@@H](NC(=O)[C@H](CC(C)C)NC(=O)[C@H](CC(N)=O)NC(=O)[C@H](Cc1c[nH]c2ccccc12)NC(=O)CCC(=O)c1ccc(C)cc1)C(C)C)C(=O)NCC(=O)N[C@@H](CC(C)C)C(=O)N[C@H](C(=O)N[C@@H](CCCNC(=N)N)C(N)=O)[C@@H](C)O [Compound 165] (X37-WNLVRIGLTR-NH2) | 18 µM | ≥ 50 µM
